In brackets after ≈: the same amount, converted by molar mass. Where two headings read alike, the source gives them in different places.
Legend:
Type in all cases: cell-based
[1] = test system: Penicillinsensitive S. aureus; test: MIC, two-fold serial agar dilution in Mueller-Hinton agar, group (G+)-Ia; conditions: Staphylococcus aureus, read-out: Geometric Mean of MIC
Procedure: (§1) In the primary evaluation of the compounds of this invention, the Minimum Inhibitory Concentrations (MIC's) of the compounds were determined by the two-fold serial agar dilution method in Mueller-Hinton agar against 32 strains of test organisms in six groups.

[2] = test system: Penicillinresistant S. aureus; test: MIC, two-fold serial agar dilution in Mueller-Hinton agar, group (G+)-Ib; conditions: Staphylococcus aureus, read-out: Geometric Mean of MIC
Procedure: as §1
(G+)Ib: Penicillinresistant S. aureus (5 strains)

[3] = test system: Cephalothinsensitive E. coli, Kl. pneumoniae and Pr. mirabilis; test: MIC, two-fold serial agar dilution in Mueller-Hinton agar, group (G-)-Ia; conditions: read-out: Geometric Mean of MIC
Procedure: as §1
(G-)Ia: Cephalothinsensitive E. coli (2 strains), Kl. pneumoniae (1
strain) and Pr. mirabilis (2 strains)

[4] = test system: Cephalothinresistant E. coli and Kl. pneumoniae; test: MIC, two-fold serial agar dilution in Mueller-Hinton agar, group (G-)-Ib; conditions: read-out: Geometric Mean of MIC
Procedure: as §1
(G-)Ib: Cephalothinresistant E. coli (3 strains) and Kl. pneumoniae (3

[5] = test system: M. morganii, Ent. cloacae and Ser. marcescens; test: MIC, two-fold serial agar dilution in Mueller-Hinton agar, group (G-)-II; conditions: read-out: Geometric Mean of MIC
Procedure: as §1
(G-)II: M. morganii (1 strain), Ent. cloacae (2 strains) and Ser.

Ps. aeruginosa = test: MIC, two-fold serial agar dilution in Mueller-Hinton agar, group (G-)-III; conditions: Pseudomonas aeruginosa, Ps. aeruginosa (6 strains), read-out: Geometric Mean of MIC
Procedure: as §1

E. coli A15164 = test: MIC against specific test organism; conditions: Escherichia coli; E. coli A15164, cephalothin-resistant strain; read-out: Minimum Inhibitory Concentration
Procedure: as §1
(§2) The test method was as described for Table 1.

E. coli Juhl = test: MIC against specific test organism; conditions: Escherichia coli, read-out: Minimum Inhibitory Concentration
Procedure: as §1, §2

Ent. cloacae A9656 = test: MIC against specific test organism; conditions: Enterobacter cloacae, read-out: Minimum Inhibitory Concentration
Procedure: as §1, §2

K. pneumoniae A9867 = test: MIC against specific test organism; conditions: Klebsiella pneumoniae; K. pneumoniae A9867, cephalothin-resistant strain; read-out: Minimum Inhibitory Concentration
Procedure: as §1, §2

K. pneumoniae D11 = test: MIC against specific test organism; conditions: Klebsiella pneumoniae, read-out: Minimum Inhibitory Concentration
Procedure: as §1, §2

M. morganii A9553 = test: MIC against specific test organism; conditions: Morganella morganii, read-out: Minimum Inhibitory Concentration
Procedure: as §1, §2

Pr. mirabilis A9554 = test: MIC against specific test organism; conditions: Proteus mirabilis, read-out: Minimum Inhibitory Concentration
Procedure: as §1, §2

Ps. aeruginosa A15150 = test: MIC against specific test organism; conditions: Pseudomonas aeruginosa, read-out: Minimum Inhibitory Concentration
Procedure: as §1, §2

Ps. aeruginosa A20717 = test: MIC against specific test organism; conditions: Pseudomonas aeruginosa, read-out: Minimum Inhibitory Concentration
Procedure: as §1, §2

Ps. aeruginosa A9843 = test: MIC against specific test organism; conditions: Pseudomonas aeruginosa, read-out: Minimum Inhibitory Concentration
Procedure: as §1, §2

S. aureus BX-1633-2 = test: MIC against specific test organism; conditions: Staphylococcus aureus, BX16332; S. aureus BX-1633-2, penicillin-resistant strain; read-out: Minimum Inhibitory Concentration
Procedure: as §1, §2

S. aureus Smith = test: MIC against specific test organism; conditions: Staphylococcus aureus, read-out: Minimum Inhibitory Concentration
Procedure: as §1, §2

Ser. marcescens A20019 = test: MIC against specific test organism; conditions: Serratia marcescens, read-out: Minimum Inhibitory Concentration
Procedure: as §1, §2

[6] = (G+)-Ia, penicillin-sensitive S. aureus (5 strains)
[7] = (G+)-Ib, penicillin-resistant S. aureus (5 strains)
[8] = (G-)-Ia, cephalothin-sensitive E. coli (2), Kl. pneumoniae (1), Pr. mirabilis (2 strains)
[9] = (G-)-II, M. morganii (1), Ent. cloacae (2), Ser. marcescens (2 strains)

Row | Compound | MIC [1, 6] [µg/mL] | MIC [2, 7] [µg/mL] | MIC [3, 8] [µg/mL] | MIC [4] [µg/mL] | MIC [5, 9] [µg/mL] | MIC (Ps. aeruginosa) [µg/mL] | MIC [5] [µg/mL] | also measured
1 | CC(C)(O/N=C(\C(=O)NC1C(=O)N2C(C(=O)[O-])=C(C[n+]3ccsc3NC=O)CS[C@H]12)c1csc(N)n1)C(=O)O (stereo partly shown) [Example 14, 7-[2-(Z)-(2-Aminothiazol-4-yl)-2-(2-carboxyprop-2-yloxyimino)acetamido]-3-(2-formylaminothiazolio)methyl-3-cephem-4-carboxylate] | 5.5 (≈ 9.23 µM) | 12.5 (≈ 21 µM) | 0.15 (≈ 0.252 µM) | 3.6 (≈ 6.04 µM) | 3.2 (≈ 5.37 µM) | 7 (≈ 11.8 µM) |  | 
2 | CO/N=C(\C(=O)NC1C(=O)N2C(C(=O)[O-])=C(C[n+]3csc(CCN)c3C)CSC12)c1csc(N)n1 (stereo not shown) [Example 10, 7-[(Z)-2-(2-Aminothiazol-4-yl)-2-methoxyiminoacetamido]-3-[5-(2-aminoethyl)-4-methylthiazolio]methyl-3-cephem-4-carboxylate] | 2.1 (≈ 3.91 µM) | 6.3 (≈ 11.7 µM) | 0.8 (≈ 1.49 µM) | 1.4 (≈ 2.6 µM) |  | 22 (≈ 40.9 µM) | 5.5 (≈ 10.2 µM) | 
3 | Cc1scc[n+]1CC1=C(C(=O)[O-])N2C(=O)C(NC(=O)/C(=N\OC3(C(=O)O)CCC3)c3csc(N)n3)[C@H]2SC1 (stereo partly shown) [Example 11, 7-[(Z)-2-(2-Aminothiazol-4-yl)-2-(1-carboxycyclobut-1-oxyimino)acetamido]-3-(2-methylthiazolio)methyl-3-cephem-4-carboxylate] | 4.2 (≈ 7.26 µM) | 9.5 (≈ 16.4 µM) | 0.076 (≈ 0.131 µM) | 1.6 (≈ 2.77 µM) | 0.4 (≈ 0.691 µM) | 2.1 (≈ 3.63 µM) |  | 
4 | CCSc1scc[n+]1CC1=C(C(=O)[O-])N2C(=O)C(NC(=O)/C(=N\OC3(C(=O)O)CCC3)c3csc(N)n3)[C@H]2SC1 (stereo partly shown) [Example 12, 7-[(Z)-2-(2-Aminothiazol-4-yl)-2-(1-carboxycyclobut-1-oxyimino)acetamido]-3-(2-ethylthiothiazolio)methyl-3-cephem-4-carboxylate] | 1.8 (≈ 2.88 µM) | 4.7 (≈ 7.52 µM) | 0.066 (≈ 0.106 µM) | 0.79 (≈ 1.26 µM) | 0.4 (≈ 0.64 µM) | 5.7 (≈ 9.12 µM) |  | 
5 | C#CCO/N=C(\C(=O)NC1C(=O)N2C(C(=O)[O-])=C(C[n+]3ccsc3SC)CS[C@H]12)c1csc(N)n1 (stereo partly shown) [Example 17, 7-[(Z)-2-(2-Aminothiazol-4-yl)-2-propargyloxyiminoacetamido]-3-(2-methylthiothiazolio)methyl-3-cephem-4-carboxylate] |  |  |  | 0.6 (≈ 1.09 µM) |  | 6.9 (≈ 12.5 µM) | 0.69 (≈ 1.25 µM) | MIC [1]: 0.23 µg/mL (≈ 0.418 µM); MIC [2]: 0.8 µg/mL (≈ 1.45 µM); MIC [3]: 0.66 µg/mL (≈ 1.2 µM)
6 | CCO/N=C(\C(=O)NC1C(=O)N2C(C(=O)[O-])=C(C[n+]3ccsc3SC)CS[C@H]12)c1csc(N)n1 (stereo partly shown) [Example 4, 7-[(Z)-2-(2-Aminothiazol-4-yl)-2-(ethoxyimino)acetamido]-3-(2-methylthiothiazolio)methyl-3-cephem-4-carboxylate] | 0.35 (≈ 0.647 µM) |  | 0.076 (≈ 0.141 µM) | 0.32 (≈ 0.592 µM) |  | 5.6 (≈ 10.4 µM) | 0.69 (≈ 1.28 µM) | MIC [2]: 0.61 µg/mL (≈ 1.13 µM); MIC (E. coli A15164): 0.2 µg/mL (≈ 0.37 µM); MIC (E. coli Juhl): 0.1 µg/mL (≈ 0.185 µM); MIC (Ent. cloacae A9656): 0.2 µg/mL (≈ 0.37 µM); MIC (K. pneumoniae A9867): 1.6 µg/mL (≈ 2.96 µM); MIC (K. pneumoniae D11): 0.1 µg/mL (≈ 0.185 µM); MIC (M. morganii A9553): 0.4 µg/mL (≈ 0.74 µM); MIC (Pr. mirabilis A9554): 0.2 µg/mL (≈ 0.37 µM); MIC (Ps. aeruginosa A15150): 3.1 µg/mL (≈ 5.73 µM); MIC (Ps. aeruginosa A20717): 12.5 µg/mL (≈ 23.1 µM); MIC (Ps. aeruginosa A9843): 12.5 µg/mL (≈ 23.1 µM); MIC (S. aureus BX-1633-2): 0.4 µg/mL (≈ 0.74 µM); MIC (S. aureus Smith): 0.4 µg/mL (≈ 0.74 µM); MIC (Ser. marcescens A20019): 0.1 µg/mL (≈ 0.185 µM)
7 | CC(C)(O/N=C(\C(=O)NC1C(=O)N2C(C(=O)[O-])=C(C[n+]3ccsc3N)CS[C@H]12)c1csc(N)n1)C(=O)O (stereo partly shown) [Example 8, 7-[(Z)-2-(2-Aminothiazol-4-yl)-2-(2-carboxyprop-2-oxyimino)acetamido]-3-(2-amino-3-thiazolio)methyl-3-cephem-4-carboxylate] | 5.5 (≈ 9.69 µM) | 14 (≈ 24.7 µM) | 0.15 (≈ 0.264 µM) | 4 (≈ 7.05 µM) | 8.3 (≈ 14.6 µM) | 5.6 (≈ 9.87 µM) |  | 
8 | CNc1scc[n+]1CC1=C(C(=O)[O-])N2C(=O)C(NC(=O)/C(=N\OC(C)(C)C(=O)O)c3csc(N)n3)[C@H]2SC1 (stereo partly shown) [Example 15, 7-[(Z)-2-(2-Aminothiazol-4-yl)-2-(2-carboxyprop-2-oxyimino)acetamido]-3-(2-methylaminothiazolio)methyl-3-cephem-4-carboxylate] | 7.2 (≈ 12.4 µM) | 25 (≈ 43 µM) | 0.4 (≈ 0.688 µM) | 5.5 (≈ 9.46 µM) |  | 13 (≈ 22.3 µM) | 3.6 (≈ 6.19 µM) | 
9 | CSc1scc(C)[n+]1CC1=C(C(=O)[O-])N2C(=O)C(NC(=O)/C(=N\OC(C)(C)C(=O)O)c3csc(N)n3)[C@H]2SC1 (stereo partly shown) [Example 16, 7-[(Z)-2-(2-Aminothiazol-4-yl)-2-(2-carboxyprop-2-oxyimino)acetamido]-3-(4-methyl-2-methylthiothiazolio)methyl-3-cephem-4-carboxylate] | 4.2 (≈ 6.85 µM) | 19 (≈ 31 µM) | 0.1 (≈ 0.163 µM) | 0.79 (≈ 1.29 µM) | 0.53 (≈ 0.865 µM) | 2.8 (≈ 4.57 µM) |  | 
10 | Cc1c(CCO)sc[n+]1CC1=C(C(=O)[O-])N2C(=O)C(NC(=O)/C(=N\OC(C)(C)C(=O)O)c3csc(N)n3)C2SC1 (stereo not shown) [Example 6, 7-[(Z)-2-(2-Aminothiazol-4-yl)-2-(2-carboxyprop-2-oxyimino)acetamido]-3-[5-(2-hydroxyethyl)-4-methylthiazolio]methyl-3-cephem-4-carboxylate] | 8.3 (≈ 13.6 µM) | 25 (≈ 40.9 µM) | 0.076 (≈ 0.124 µM) | 1.8 (≈ 2.95 µM) | 2.8 (≈ 4.58 µM) | 4.4 (≈ 7.2 µM) |  | 
11 | Cc1csc[n+]1CC1=C(C(=O)[O-])N2C(=O)C(NC(=O)/C(=N\OC(C)(C)C(=O)O)c3csc(N)n3)C2SC1 (stereo not shown) [Example 7, 7-[(Z)-2-(2-Aminothiazol-4-yl)-2-(2-carboxyprop-2-oxyimino)acetamido]-3-(4-methylthiazolio)methyl-3-cephem-4-carboxylate] | 7.2 (≈ 12.7 µM) | 12.5 (≈ 22.1 µM) | 0.076 (≈ 0.134 µM) | 1.8 (≈ 3.18 µM) | 2.8 (≈ 4.94 µM) | 4 (≈ 7.06 µM) |  | 
12 | CC(C)(O/N=C(\C(=O)NC1C(=O)N2C(C(=O)[O-])=C(C[n+]3ccsc3)CSC12)c1csc(N)n1)C(=O)O (stereo not shown) [Example 5, 7-[(Z)-2-(2-Aminothiazol-4-yl)-2-(2-carboxyprop-2-oxyimino)acetamido]-3-thiazoliomethyl-3-cephem-4-carboxylate] | 8.3 (≈ 15 µM) | 25 (≈ 45.2 µM) | 0.13 (≈ 0.235 µM) | 2.5 (≈ 4.52 µM) |  | 3.1 (≈ 5.61 µM) | 3.6 (≈ 6.51 µM) | 
13 | CC(C)(O/N=C(\C(=O)NC1C(=O)N2C(C(=O)[O-])=C(C[n+]3ccsc3SCC(=O)O)CS[C@H]12)c1csc(N)n1)C(=O)O (stereo partly shown) [Example 13, 7-[(Z)-2-(2-Aminothiazol-4-yl)-2-(2-carboxyprop-2-oxyimino)acetamido]-3-(2-carboxymethylthiothiazolio)methyl-3-cephem-4-carboxylate] | 25 (≈ 38.9 µM) | 50 (≈ 77.8 µM) | 0.26 (≈ 0.405 µM) | 4 (≈ 6.22 µM) | 1.6 (≈ 2.49 µM) | 23 (≈ 35.8 µM) |  | 
14 | COc1sc[n+](CC2=C(C(=O)[O-])N3C(=O)C(NC(=O)/C(=N\OC(C)(C)C(=O)O)c4csc(N)n4)C3SC2)c1C (stereo not shown) [Example 9, 7-[(Z)-2-(2-Aminothiazol-4-yl)-2-(2-carboxyprop-2-oxyimino)acetamido]-3-(5-methoxy-4-methylthiazolio)methyl-3-cephem-4-carboxylate] | 9.5 (≈ 15.9 µM) |  | 0.1 (≈ 0.168 µM) | 1.6 (≈ 2.68 µM) | 2.8 (≈ 4.69 µM) | 6.3 (≈ 10.6 µM) |  | MIC [2]: 16 µg/mL (≈ 26.8 µM)

From patent US4507487A, “Chemical compounds” (Bristol-Myers Company, priority 1983, dated 1985)
